According to EP1881000A1, “Conjugates of 2-fluoro-2-deoxy-glucose and their uses as anti cancer agents” (INSTITUT NATIONAL DE LA SANTE ET DE LA RECHERCHE MEDICALE …, priority 2006, dated 2008):
Where “and” joins values, the source holds several entries; their conditions need not be identical. Equal entries are not always repeated.

What was measured:
[1] = Determination of the Maximum Tolerated Dose (MTD), acute toxicity after a single IP injection; assay type: in vivo, male OF1 mice; set-up: key to Clinical State Score (CSS) diarrhoea / Clinical State Score (CSS) rough coat / Clinical State Score (CSS) closed eyes / Clinical State Score (CSS) lethargy / Clinical State Score (CSS) total: per mouse 0 = absent, 1 = present per sign; summed over group; conditions: for dosage inducing high side effects (mainly diarrhoea): as early as Day 1 after IP administration; for MTD at 2 weeks: male, OF1, mouse, in vivo, zero deaths, maximal weight loss 15 % at Day 1, CSS as low as possible; for MTD at 2 weeks / doses inducing 100% mortality: single IP administration; for Number of deaths (day): non-tumour bearing mice; for Clinical State Score (CSS) closed eyes / Clinical State Score (CSS) diarrhoea / Clinical State Score (CSS) lethargy / Clinical State Score (CSS) rough coat / Clinical State Score (CSS) total: group sum
Method: (§1) Drugs were dissolved in a mixture of dimethylacetamide (Sigma) and oleic macrogolglycerides (Labrafil® M1944Cs, Gattefossé) (10:90%, vol/vol).
Initially, the Maximum Tolerated Dose (MTD) after intraperitoneal (IP) administration was determinated.
For MTD determination, study was conducted on male OF1 mice weighing about 30 g, 6-weeks old (Charles River, France). Groups of five to six mice received a single IP injection of each drug at variable doses according to the compound (see Tables 2, 3 and 4).
Individual dose were based on the body weight of each mouse. All the mice received a constant injection volume of 250 µL per 25 g of body weight. A group of seven control mice received the vehicle.
After IP injection, mice were weighed and observed every two days over a 2 week-period to evaluate general clinical state. For each animal, a clinical state score (CSS) was calculated based on the absence (value 0) or presence (value 1) of diarrhoea, lethargy, rough coat and closed eyes. CSS was then calculated per group by summing individual scores. Loss of weight and mortality were also recorded.

[2] = test system: CT-26 colon carcinoma; assay: Antitumour activity in CT-26 colon carcinoma bearing mice, IP chemotherapy protocol; assay type: in vivo, BALB/c male mice; conditions: for tumour growth inhibition (CTW time-course): CT26 carcinoma, vs non-treated and vehicle-treated groups, p< 0.05; for LCK / Survival Mt/Mc / Weight loss (% max) / antitumour activity according to the NCI criteria decisions / Antitumour Efficacy: CT26 colon carcinoma; for antitumour activity according to the NCI criteria decisions: in words; for Life span of the animals: CT-26 colon carcinoma-bearing mice
Method: as §1
It is performed in tumour-bearing mice following an IP chemotherapy protocol.
To establish CT-26 colon carcinoma model, 2.5 x 10^5 CT26 cells (Dr Iaiaih J.Filder of MDAnderson Cancer Center, University of Texas; in vitro doubling time of 20 hours) were suspended in 100 µL of phosphate buffer solution and injected into the subcutaneous tissue of the right flank of BALB/c male mice, 6-weeks-old (Charles River, France) on day zero.
For both molecules and both animal models, treatment was initiated eight days post tumour grafting, when the tumours had reached a measurable size, corresponding to a calculated tumour weight (CTW) of 40 and 70 mg for B16 and CT-26 models respectively.
Animals were then randomly divided in both treatment and control groups. […] Two dosages have been evaluated, MTD and 0.75 MTD
Mice were weighed and observed every two days over a 30-day -period to evaluate general clinical state. Length and width of tumours were measured every two days over a 30-day-period using a dedicated slide calliper.
The Calculated Tumour Weight (CTW) of each tumour was determined according to the formula: CTW(mg) = L × 1^2 /2 [formula] with L = length in mm and 1= width in mm.
Considering physiopathological features of the CT26 colon carcinoma model, mainly cachexy, drugs 21a and 40a, were assessed at the lowest dosage, i.e. 0.75 MTD administered at Day 8, Day 12, Day 16.
The reference treatment chlorambucil was given at the MTD dosage according to the same schedule.
For subcutaneously growing tumours, antitumour activity is often assessed by using the log10 cell kill (LCK) which is calculated from the following formula: LCK = T-C value in days/3.32 × Td [formula] T is the median time (in days) required for the treatment group tumours to reach a predetermined CTW (e.g. 1000 mg). C is the median time (in days) required for the control group tumours to reach the same CTW. Td is the tumour volume doubling time (in days) estimated from the best fit straight line from a log-linear growth plot of the control group tumours in exponential growth.
An increase in life span was defined by the ratio of the median survival of drug-treated mice (Mt) versus controls (Mc): a survival Mt/Mc equal or higher than 125 % was sought
Mean weight loss of the group was used to evaluate treatment side effects. A mean body weight loss of greater 20% was considered to indicate an excessively toxic dosage.

[3] = 0,75 MTD IP at Day 8, 12 and 16

O=C(O)CCCc1ccc(N(CCCl)CCCl)cc1 [chlorambucil, reference compound]
dosage inducing high side effects (mainly diarrhoea) [1]: ≥ 0.0175 mmol/kg
MTD at 2 weeks [1]: 50 µmol/kg
Weight loss at day 1 ([1]; single IP 0.0175 mmol/kg): 1.4%
Number of deaths (day) ([1]; single IP 0.0175 mmol/kg): 0
Weight loss at day 1 ([1]; single IP 0.035 mmol/kg): 6.1%
Number of deaths (day) ([1]; single IP 0.035 mmol/kg): 0
Weight loss at day 1 ([1]; single IP 0.05 mmol/kg): 12.9%
Number of deaths (day) ([1]; single IP 0.05 mmol/kg): 0
Weight loss at day 1 ([1]; single IP 0.07 mmol/kg): 13.1%
Number of deaths (day) ([1]; single IP 0.07 mmol/kg): 0
Weight loss at day 1 ([1]; single IP 0.09 mmol/kg): 26%
Number of deaths (day) ([1]; single IP 0.09 mmol/kg): 1 (D1)
Number of deaths (day) ([1]; single IP 0.14 mmol/kg): 4 (D1)
doses inducing 100% mortality [1]: 0.14 mmol/kg
tumour growth inhibition (CTW time-course) ([2]; MTD dosage, same schedule): significant tumour growth inhibition
LCK ([2]; dosage not stated): 0.79
LCK ([2]; MTD, IP D8, D12, D16): 0.79
Survival Mt/Mc ([2]; MTD, IP D8, D12, D16): 0.74
Weight loss (% max) ([2]; MTD, IP D8, D12, D16): 13.9%
antitumour activity according to the NCI criteria decisions [2]: discrete antitumour activity
antitumour activity according to the NCI criteria decisions ([2]; listed as Chlorambucil): failed in exhibiting any antitumour activity
Life span of the animals [2]: not

CC(=O)OC[C@H]1O[C@@H](NC(=O)CNC(=O)CCCc2ccc(N(CCCl)CCCl)cc2)[C@H](F)[C@@H](OC(C)=O)[C@@H]1OC(C)=O [Compound 21a, N-[2-(3,4,6-tri-O-acetyl-2-deoxy-2-fluoro-β-D-glucopyranosylamino)-2-oxoethyl]-4-{4-[bis(2-chloroethyl)amino]phenyl}butanamide]
dosage inducing high side effects (mainly diarrhoea) [1]: ≥ 0.14 mmol/kg
MTD at 2 weeks [1]: 140 µmol/kg
Weight loss at day 1 ([1]; single IP 0.07 mmol/kg): 5.6%
Clinical State Score (CSS) closed eyes ([1]; single IP 0.07 mmol/kg): 0
Clinical State Score (CSS) diarrhoea ([1]; single IP 0.07 mmol/kg): 1
Clinical State Score (CSS) lethargy ([1]; single IP 0.07 mmol/kg): 0
Clinical State Score (CSS) rough coat ([1]; single IP 0.07 mmol/kg): 0
Clinical State Score (CSS) total ([1]; single IP 0.07 mmol/kg): 1
Number of deaths (day) ([1]; single IP 0.07 mmol/kg): 0
Weight loss at day 1 ([1]; single IP 0.14 mmol/kg): 8.4%
Clinical State Score (CSS) closed eyes ([1]; single IP 0.14 mmol/kg): 0
Clinical State Score (CSS) diarrhoea ([1]; single IP 0.14 mmol/kg): 4
Clinical State Score (CSS) lethargy ([1]; single IP 0.14 mmol/kg): 0
Clinical State Score (CSS) rough coat ([1]; single IP 0.14 mmol/kg): 0
Clinical State Score (CSS) total ([1]; single IP 0.14 mmol/kg): 4
Number of deaths (day) ([1]; single IP 0.14 mmol/kg): 0
Weight loss at day 1 ([1]; single IP 0.18 mmol/kg): 10.4%
Clinical State Score (CSS) closed eyes ([1]; single IP 0.18 mmol/kg): 0
Clinical State Score (CSS) diarrhoea ([1]; single IP 0.18 mmol/kg): 4
Clinical State Score (CSS) lethargy ([1]; single IP 0.18 mmol/kg): 0
Clinical State Score (CSS) rough coat ([1]; single IP 0.18 mmol/kg): 4
Clinical State Score (CSS) total ([1]; single IP 0.18 mmol/kg): 8
Number of deaths (day) ([1]; single IP 0.18 mmol/kg): 1
Weight loss at day 1 ([1]; single IP 0.21 mmol/kg): 9.7%
Clinical State Score (CSS) closed eyes ([1]; single IP 0.21 mmol/kg): 0
Clinical State Score (CSS) diarrhoea ([1]; single IP 0.21 mmol/kg): 1
Clinical State Score (CSS) lethargy ([1]; single IP 0.21 mmol/kg): 2
Clinical State Score (CSS) rough coat ([1]; single IP 0.21 mmol/kg): 4
Clinical State Score (CSS) total ([1]; single IP 0.21 mmol/kg): 7
Number of deaths (day) ([1]; single IP 0.21 mmol/kg): 1 (D1)
Number of deaths (day) ([1]; single IP 0.28 mmol/kg): 4 (D1)
Number of deaths (day) ([1]; single IP 0.56 mmol/kg): 4 (D1)
Number of deaths (day) ([1]; single IP 0.76 mmol/kg): 5 (D1)
doses inducing 100% mortality [1]: 0.76 mmol/kg
tumour growth inhibition (CTW time-course) [2, 3]: significant tumour growth inhibition
LCK ([2]; dosage not stated): around 1.1
Antitumour Efficacy ([2]; 75% MTD, IP D8, D12, D16): + (0.7 < LCK < 1.2 active drug (+))
LCK ([2]; 75% MTD, IP D8, D12, D16): 1.10
Survival Mt/Mc ([2]; 75% MTD, IP D8, D12, D16): 1.5
Weight loss (% max) ([2]; 75% MTD, IP D8, D12, D16): 17.1%
antitumour activity according to the NCI criteria decisions [2]: active
Life span of the animals [2]: increased

CC(=O)OC[C@H]1O[C@@H](Oc2ccc(NC(=O)CNC(=O)CCCc3ccc(N(CCCl)CCCl)cc3)cc2)[C@H](F)[C@@H](OC(C)=O)[C@@H]1OC(C)=O [Compound 40a, N-{2-[4-(3,4,6-tri-O-acetyl-2-deoxy-2-fluoro-β-D-glucopyranosyloxy)phenyl]amino-2-oxoethyl}-4-{4-[bis(2-chloroethyl)amino]phenyl}butanamide]
dosage inducing high side effects (mainly diarrhoea) [1]: ≥ 0.07 mmol/kg
MTD at 2 weeks [1]: 140 µmol/kg
Weight loss at day 1 ([1]; single IP 0.07 mmol/kg): 6.3%
Clinical State Score (CSS) closed eyes ([1]; single IP 0.07 mmol/kg): 0
Clinical State Score (CSS) diarrhoea ([1]; single IP 0.07 mmol/kg): 2
Clinical State Score (CSS) lethargy ([1]; single IP 0.07 mmol/kg): 0
Clinical State Score (CSS) rough coat ([1]; single IP 0.07 mmol/kg): 0
Clinical State Score (CSS) total ([1]; single IP 0.07 mmol/kg): 2
Number of deaths (day) ([1]; single IP 0.07 mmol/kg): 0
Weight loss at day 1 ([1]; single IP 0.14 mmol/kg): 14.9%
Clinical State Score (CSS) closed eyes ([1]; single IP 0.14 mmol/kg): 0
Clinical State Score (CSS) diarrhoea ([1]; single IP 0.14 mmol/kg): 2
Clinical State Score (CSS) lethargy ([1]; single IP 0.14 mmol/kg): 0
Clinical State Score (CSS) rough coat ([1]; single IP 0.14 mmol/kg): 0
Clinical State Score (CSS) total ([1]; single IP 0.14 mmol/kg): 2
Number of deaths (day) ([1]; single IP 0.14 mmol/kg): 0
Weight loss at day 1 ([1]; single IP 0.18 mmol/kg): 8.2%
Clinical State Score (CSS) closed eyes ([1]; single IP 0.18 mmol/kg): 0
Clinical State Score (CSS) diarrhoea ([1]; single IP 0.18 mmol/kg): 3
Clinical State Score (CSS) lethargy ([1]; single IP 0.18 mmol/kg): 0
Clinical State Score (CSS) rough coat ([1]; single IP 0.18 mmol/kg): 3
Clinical State Score (CSS) total ([1]; single IP 0.18 mmol/kg): 6
Number of deaths (day) ([1]; single IP 0.18 mmol/kg): 2
Number of deaths (day) ([1]; single IP 0.21 mmol/kg): 3 (D6)
Weight loss at day 1 ([1]; single IP 0.28 mmol/kg): 18.3%
Clinical State Score (CSS) closed eyes ([1]; single IP 0.28 mmol/kg): 2
Clinical State Score (CSS) diarrhoea ([1]; single IP 0.28 mmol/kg): 4
Clinical State Score (CSS) lethargy ([1]; single IP 0.28 mmol/kg): 2
Clinical State Score (CSS) rough coat ([1]; single IP 0.28 mmol/kg): 0
Clinical State Score (CSS) total ([1]; single IP 0.28 mmol/kg): 8
Number of deaths (day) ([1]; single IP 0.28 mmol/kg): 2 (D1)
Number of deaths (day) ([1]; single IP 0.42 mmol/kg): 3(D6)
Number of deaths (day) ([1]; single IP 0.56 mmol/kg): 5(D6,7,9,13,15)
doses inducing 100% mortality [1]: 0.56 mmol/kg
tumour growth inhibition (CTW time-course) [2, 3]: significant tumour growth inhibition
LCK ([2]; dosage not stated): around 1.5
Antitumour Efficacy ([2]; 75% MTD, IP D8, D12, D16): ++ (1.7 < LCK < 1.9 highly active drug (++))
LCK ([2]; 75% MTD, IP D8, D12, D16): 1.52
Survival Mt/Mc ([2]; 75% MTD, IP D8, D12, D16): 1.29
Weight loss (% max) ([2]; 75% MTD, IP D8, D12, D16): 21% and 21.5%
antitumour activity according to the NCI criteria decisions [2]: highly active
Life span of the animals [2]: increased
